The target of the assay is T1, BTK (Homo sapiens, UniProt Q06187).
T1 construct: endogenous in cells; host or cells: TMD-8 cells
As to the kind of experiment: BTK degradation in TMD-8 cells, HTRF assay after 6 h treatment. Format: cell-based. The following applies: IC50 (DC50) of BTK degradation. The method in brief: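 TMD-8 cells treated for 6 h with 8 compound doses in 6-fold dilution steps from a 1 mM 500× DMSO stock (0.2% DMSO), then lysed 30 min at room temperature. BTK in lysate detected by HTRF (665/620 nm) after overnight antibody incubation; DC50 from four-parameter curve fit.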
(In general: TR-FRET usually uses a lanthanide donor and a delayed reading to cut background.)

T1 sequence (Q06187 whole entry): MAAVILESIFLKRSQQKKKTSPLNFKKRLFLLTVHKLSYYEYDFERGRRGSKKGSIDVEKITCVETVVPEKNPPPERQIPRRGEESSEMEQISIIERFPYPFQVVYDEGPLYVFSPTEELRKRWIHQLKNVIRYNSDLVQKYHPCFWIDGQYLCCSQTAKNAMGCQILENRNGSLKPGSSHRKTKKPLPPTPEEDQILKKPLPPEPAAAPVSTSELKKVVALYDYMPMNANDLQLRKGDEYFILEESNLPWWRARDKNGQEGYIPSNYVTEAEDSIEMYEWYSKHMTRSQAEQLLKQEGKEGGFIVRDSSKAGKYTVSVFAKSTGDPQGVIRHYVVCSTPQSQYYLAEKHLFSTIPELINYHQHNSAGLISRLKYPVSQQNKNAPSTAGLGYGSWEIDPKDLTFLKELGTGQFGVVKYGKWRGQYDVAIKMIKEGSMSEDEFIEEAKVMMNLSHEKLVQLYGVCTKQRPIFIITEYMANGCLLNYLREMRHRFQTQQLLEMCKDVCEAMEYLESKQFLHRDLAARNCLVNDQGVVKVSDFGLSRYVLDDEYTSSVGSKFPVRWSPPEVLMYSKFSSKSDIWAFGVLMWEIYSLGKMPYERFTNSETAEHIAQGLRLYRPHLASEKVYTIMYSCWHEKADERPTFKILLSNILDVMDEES

The term DC50 denotes the concentration at which degradation of the target reaches its halfway point. Low readings indicate a more potent degrader, high ones a less potent degrader. In the case of `Cc1cc(-c2n[nH]c3ncc(-c4ccc(N5CCN(CC6CCN(c7ccc(N8CCC(=O)NC8=O)c(C)c7)CC6)CC5)cn4)cc23)ccc1[C@@H](C)NC(=O)c1noc(C(C)(C)C)n1` [Example 78, (R)-5-(tert-butyl)-N-(1-(4-(5-(5-(4-((1-(4-(2,4-dioxotetrahydropyrimidin-1(2H)-yl)-3-methylphenyl)piperidin-4-yl)methyl)piperazin-1-yl)pyridin-2-yl)-1H-pyrazolo[3,4-b]pyridin-3-yl)-2-methylphenyl)ethyl)-1,2,4-oxadiazole-3-carboxamide], the 50% degradation concentration (DC50) was determined as 1.75 nM. `Cc1cc(-c2n[nH]c3ncc(-c4ccc(N5CCN(CCCOc6ccc(C7CCC(=O)NC7=O)c(F)c6)CC5)cc4)cc23)ccc1[C@@H](C)NC(=O)c1noc(C(C)(C)C)n1` (stereo partly drawn) [Example 86, 5-(tert-butyl)-N-((1R)-1-(4-(5-(4-(4-(3-(4-(2,6-dioxopiperidin-3-yl)-3-fluorophenoxy)propyl)piperazin-1-yl)phenyl)-1H-pyrazolo[3,4-b]pyridin-3-yl)-2-methylphenyl)ethyl)-1,2,4-oxadiazole-3-carboxamide]: the half-maximal degradation concentration (DC50) stood at 3.95 nM. `Cc1cc(CCN2CCN(c3ccc(-c4cnc5[nH]nc(-c6ccc([C@@H](C)NC(=O)c7nc(C(C)(C)C)no7)c(C)c6)c5c4)cc3)CC2)ccc1C1CCC(=O)NC1=O` (stereo partly drawn) [Example 87, 3-(tert-butyl)-N-((1R)-1-(4-(5-(4-(4-(4-(2,6-dioxopiperidin-3-yl)-3-methylphenethyl)piperazin-1-yl)phenyl)-1H-pyrazolo[3,4-b]pyridin-3-yl)-2-methylphenyl)ethyl)-1,2,4-oxadiazole-5-carboxamide] gave a DC50 of 7.21 nM. The compound `Cc1cc(-c2n[nH]c3ncc(-c4ccc(CCN5CCC(c6ccc([C@@H]7CCC(=O)NC7=O)cc6)CC5)cc4)cc23)ccc1CNC(=O)c1nc(C(C)(C)C)no1` [Example 88, (S)-3-(tert-butyl)-N-(4-(5-(4-(2-(4-(4-(2,6-dioxopiperidin-3-yl)phenyl)piperidin-1-yl)ethyl)phenyl)-1H-pyrazolo[3,4-b]pyridin-3-yl)-2-methylbenzyl)-1,2,4-oxadiazole-5-carboxamide] returned a half-maximal degradation concentration (DC50) of 9.41 nM. `Cc1cc(-c2n[nH]c3ncc(-c4ccc(CCN5CCC(c6ccc([C@H]7CCC(=O)NC7=O)cc6)CC5)cc4)cc23)ccc1CNC(=O)c1nc(C(C)(C)C)no1` [Example 89, (R)-3-(tert-butyl)-N-(4-(5-(4-(2-(4-(4-(2,6-dioxopiperidin-3-yl)phenyl)piperidin-1-yl)ethyl)phenyl)-1H-pyrazolo[3,4-b]pyridin-3-yl)-2-methylbenzyl)-1,2,4-oxadiazole-5-carboxamide] had a DC50 of 0.635 nM. In the case of `Cc1cc(-c2n[nH]c3ncc(-c4ccc(N5CCN(CC6CCN(c7cc(F)ccc7N7CCC(=O)NC7=O)CC6)CC5)cc4)cc23)ccc1[C@@H](C)NC(=O)c1noc(C(C)(C)C)n1` [Example 90, (R)-5-(tert-butyl)-N-(1-(4-(5-(4-(4-((1-(2-(2,4-dioxotetrahydropyrimidin-1(2H)-yl)-5-fluorophenyl)piperidin-4-yl)methyl)piperazin-1-yl)phenyl)-1H-pyrazolo[3,4-b]pyridin-3-yl)-2-methylphenyl)ethyl)-1,2,4-oxadiazole-3-carboxamide], the DC50 is more than 2000 nM. In turn, `Cc1cc(-c2n[nH]c3ncc(-c4ccc(N5CCN(CCC6CCN(c7ccc([C@H]8CCC(=O)NC8=O)cc7)CC6)CC5)cc4)cc23)ccc1CNC(=O)c1noc(C(C)(C)C)n1` [Example 91, (R)-5-(tert-butyl)-N-(4-(5-(4-(4-(2-(1-(4-(2,6-dioxopiperidin-3-yl)phenyl)piperidin-4-yl)ethyl)piperazin-1-yl)phenyl)-1H-pyrazolo[3,4-b]pyridin-3-yl)-2-methylbenzyl)-1,2,4-oxadiazole-3-carboxamide] gave a DC50 of 1.97 nM. In the case of `Cc1cc(-c2n[nH]c3ncc(-c4ccc(N5CCN(CCC6CCN(c7ccc([C@@H]8CCC(=O)NC8=O)cc7)CC6)CC5)cc4)cc23)ccc1CNC(=O)c1noc(C(C)(C)C)n1` [Example 92, (S)-5-(tert-butyl)-N-(4-(5-(4-(4-(2-(1-(4-(2,6-dioxopiperidin-3-yl)phenyl)piperidin-4-yl)ethyl)piperazin-1-yl)phenyl)-1H-pyrazolo[3,4-b]pyridin-3-yl)-2-methylbenzyl)-1,2,4-oxadiazole-3-carboxamide] it was 7.24 nM; in that of `Cc1cc(-c2n[nH]c3ncc(-c4ccc(N5CCN(CC6CCN(c7ccc(N8CCC(=O)NC8=O)cc7)CC6)CC5)cc4)cc23)ccc1CNC(=O)c1csc(C(C)(C)C)n1` [Example 93, 2-(tert-butyl)-N-(4-(5-(4-(4-((1-(4-(2,4-dioxotetrahydropyrimidin-1(2H)-yl)phenyl)piperidin-4-yl)methyl)piperazin-1-yl)phenyl)-1H-pyrazolo[3,4-b]pyridin-3-yl)-2-methylbenzyl)thiazole-4-carboxamide], 28.8 nM; in that of `Cc1cc(-c2n[nH]c3ncc(-c4ccc(N5CCN(CC6CCN(c7ccc(N8CCC(=O)NC8=O)cc7)CC6)CC5)cc4)cc23)ccc1CNC(=O)c1cnc(C(C)(C)C)s1` [Example 94, 2-(tert-butyl)-N-(4-(5-(4-(4-((1-(4-(2,4-dioxotetrahydropyrimidin-1(2H)-yl)phenyl)piperidin-4-yl)methyl)piperazin-1-yl)phenyl)-1H-pyrazolo[3,4-b]pyridin-3-yl)-2-methylbenzyl)thiazole-5-carboxamide], 13.1 nM. In the case of `Cc1cc(-c2n[nH]c3ncc(-c4cccc(N5CCN(CC6CCN(c7ccc(N8CCC(=O)NC8=O)cc7)CC6)CC5)c4)cc23)ccc1[C@@H](C)NC(=O)c1noc(C(C)(C)C)n1` [Example 95, (R)-5-(tert-butyl)-N-(1-(4-(5-(3-(4-((1-(4-(2,4-dioxotetrahydropyrimidin-1(2H)-yl)phenyl)piperidin-4-yl)methyl)piperazin-1-yl)phenyl)-1H-pyrazolo[3,4-b]pyridin-3-yl)-2-methylphenyl)ethyl)-1,2,4-oxadiazole-3-carboxamide] it was 71.4 nM; in that of `Cc1cc(-c2n[nH]c3ncc(-c4ccc(N5CCN(CC6CCN(c7ccc(N8CCC(=O)NC8=O)cc7)CC6)CC5)cc4)cc23)ccc1[C@@H](C)NC(=O)c1ccc(C(C)(C)O)cc1F` [Example 96, (R)—N-(1-(4-(5-(4-(4-((1-(4-(2,4-dioxotetrahydropyrimidin-1(2H)-yl)phenyl)piperidin-4-yl)methyl)piperazin-1-yl)phenyl)-1H-pyrazolo[3,4-b]pyridin-3-yl)-2-methylphenyl)ethyl)-2-fluoro-4-(2-hydroxypropan-2-yl)benzamide], more than 2000 nM. Turning to `Cc1cc(-c2n[nH]c3ncc(-c4ccc(N5CCN(CC6CCN(c7ccc(N8CCC(=O)NC8=O)cc7)CC6)CC5)c(F)c4)cc23)ccc1[C@@H](C)NC(=O)c1noc(C(C)(C)C)n1` [Example 97, (R)-5-(tert-butyl)-N-(1-(4-(5-(4-(4-((1-(4-(2,4-dioxotetrahydropyrimidin-1(2H)-yl)phenyl)piperidin-4-yl)methyl)piperazin-1-yl)-3-fluorophenyl)-1H-pyrazolo[3,4-b]pyridin-3-yl)-2-methylphenyl)ethyl)-1,2,4-oxadiazole-3-carboxamide], it took 5.8 nM to reach half-maximal degradation (DC50). In turn, `Cc1cc(-c2n[nH]c3ncc(-c4ccc(N5CCN(CC6CCN(c7ccc(N8CCC(=O)NC8=O)c(C)c7)CC6)CC5)cc4)cc23)ccc1[C@@H](C)NC(=O)c1nc(C(C)(C)C)no1` [Example 98, (R)-3-(tert-butyl)-N-(1-(4-(5-(4-(4-((1-(4-(2,4-dioxotetrahydropyrimidin-1(2H)-yl)-3-methylphenyl)piperidin-4-yl)methyl)piperazin-1-yl)phenyl)-1H-pyrazolo[3,4-b]pyridin-3-yl)-2-methylphenyl)ethyl)-1,2,4-oxadiazole-5-carboxamide] showed a DC50 of 2.68 nM. Regarding `Cc1c(CNC(=O)c2noc(C(C)(C)C)n2)ccc(-c2n[nH]c3ncc(-c4ccc(N5CCN(CC6CCN(c7ccc(N8CCC(=O)NC8=O)cc7)CC6)CC5)cc4)cc23)c1F` [Example 99, 5-(tert-butyl)-N-(4-(5-(4-(4-((1-(4-(2,4-dioxotetrahydropyrimidin-1(2H)-yl)phenyl)piperidin-4-yl)methyl)piperazin-1-yl)phenyl)-1H-pyrazolo[3,4-b]pyridin-3-yl)-3-fluoro-2-methylbenzyl)-1,2,4-oxadiazole-3-carboxamide], the half-maximal degradation concentration (DC50) turned out to be 17.8 nM.

Consider `Cc1cc(-c2n[nH]c3ncc(-c4ccc(N5CCN(CC6CCN(c7ccc(N8CCC(=O)NC8=O)cc7)CC6)CC5)cc4)cc23)c(F)cc1CNC(=O)c1noc(C(C)(C)C)n1` [Example 100, 5-(tert-butyl)-N-(4-(5-(4-(4-((1-(4-(2,4-dioxotetrahydropyrimidin-1(2H)-yl)phenyl)piperidin-4-yl)methyl)piperazin-1-yl)phenyl)-1H-pyrazolo[3,4-b]pyridin-3-yl)-5-fluoro-2-methylbenzyl)-1,2,4-oxadiazole-3-carboxamide], for which it took 10.2 nM to reach half-maximal degradation (DC50). Consider `Cc1cc(-c2n[nH]c3ncc(-c4ccc(N5CCN(CCc6ccc(C7CCC(=O)NC7=O)cn6)CC5)cc4)cc23)ccc1[C@@H](C)NC(=O)c1noc(C(C)(C)C)n1` (stereo partly drawn) [Example 101, 5-(tert-butyl)-N-((1R)-1-(4-(5-(4-(4-(2-(5-(2,6-dioxopiperidin-3-yl)pyridin-2-yl)ethyl)piperazin-1-yl)phenyl)-1H-pyrazolo[3,4-b]pyridin-3-yl)-2-methylphenyl)ethyl)-1,2,4-oxadiazole-3-carboxamide], for which the DC50 amounted to 0.959 nM.

Take `Cc1cc(-c2n[nH]c3ncc(-c4ccc(N5CCN(CC6CCN(c7ccc(N8CCC(=O)NC8=O)cc7)CC6)CC5)c(C)c4)cc23)ccc1[C@@H](C)NC(=O)c1noc(C(C)(C)C)n1` [Example 102, (R)-5-(tert-butyl)-N-(1-(4-(5-(4-(4-((1-(4-(2,4-dioxotetrahydropyrimidin-1(2H)-yl)phenyl)piperidin-4-yl)methyl)piperazin-1-yl)-3-methylphenyl)-1H-pyrazolo[3,4-b]pyridin-3-yl)-2-methylphenyl)ethyl)-1,2,4-oxadiazole-3-carboxamide]: the DC50 was 9.72 nM.

Values taken from patent US20230322761A1, “DEGRADATION OF BRUTON'S TYROSINE KINASE (BTK) BY CONJUGATION OF BTK INHIBITORS WITH E3 LIGASE LIGAND AND METHODS OF USE” (BEIGENE, LTD., priority 2020, published 2023).
